Patent publication US9283280B2, “Compositions for drug administration” (Aegis Therapeutics, LLC, priority 2008, dated 2016)

What was measured:
[1] = Intranasal triptans with alkylsaccharide in rats, plasma levels by HPLC; format: in vivo;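 note: rats in groups of eight given 20 µL into one nostril, dose expressed as triptan free base, Cmax and Tmax read from plasma concentration–time curves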
Protocol: Each set of drug solutions is administered to six groups of eight rats each by 20 uL instillation to a single nare of each animal. […] After the last blood sample is collected each animal is cuthanizcd with CO2. After blood collection, plasma is immediately prepared from each blood sample using lithium/heparin as the anticoagulant. Plasma samples are stored at −70° C. until analyzed. […] The observed Tmax values from each plot is determined by inspection of the concentration vs time plots and recorded as shown in Table XII. The doses designated in this table reflect amounts of triptan free base in each case.

blood D-glucose [2] = assay: Insulin eye drops with absorption enhancer in xylazine/ketamine-anesthetized hyperglycemic rats, blood D-glucose; format: in vivo, rat; settings: for hypoglycemic effect / insulin absorption enhancement: eye drops 0.2% insulin + 0.5% enhancer; for absorption enhancing activity by alkyl chain length: ocular insulin, concentration not given
blood D-glucose [3] = assay: Glucagon eye drops with surfactant in rats, elevation of blood D-glucose; settings: for Blood Glucose Concentration: glucagon eye drops + 0.5% surfactant added after 120 min
Protocol: Glucagon absorption from the eye was measured in rats given eye drops containing various surfactants plus glucagon (30 μg) (Eli Lilly, Indianapolis, Ind.) by monitoring an elevation in blood D-glucose levels. In these experiments, rats were anesthetized with sodium pentobarbital rather than xylazine/ketamin.
Paired animals that receive eye drops containing the surfactant alone, or glucagon alone, were compared to animals receiving eye drops with the surfactant plus glucagon.

[4] = Naratriptan 0.22 mg/kg intranasal, alkylsaccharide 0.02%
[5] = Naratriptan 0.22 mg/kg intranasal, alkylsaccharide 0.05%
[6] = Naratriptan 0.22 mg/kg intranasal, alkylsaccharide 0.1%
[7] = Naratriptan 0.22 mg/kg intranasal, alkylsaccharide 0.5%
[8] = Naratriptan 0.22 mg/kg intranasal, alkylsaccharide 2%
[9] = Rizatriptan […] intranasal, alkylsaccharide 0.02%
[10] = Rizatriptan […] intranasal, alkylsaccharide 0.05%
[11] = Rizatriptan […] intranasal, alkylsaccharide 0.1%
[12] = Rizatriptan […] intranasal, alkylsaccharide 0.5%
[13] = Rizatriptan […] intranasal, alkylsaccharide 2%
[14] = Sumatriptan 6.2 mg/kg intranasal, alkylsaccharide 0.02%
[15] = Sumatriptan 6.2 mg/kg intranasal, alkylsaccharide 0.05%
[16] = Sumatriptan 6.2 mg/kg intranasal, alkylsaccharide 0.1%
[17] = Sumatriptan 6.2 mg/kg intranasal, alkylsaccharide 0.5%
[18] = Sumatriptan 6.2 mg/kg intranasal, alkylsaccharide 2%
[19] = 0.5% surfactant, time −10 min, before insulin eye drops
[20] = 0.5% surfactant, time −20 min, before insulin eye drops
[21] = insulin eye drops + 0.5% surfactant, time 0 min
[22] = insulin eye drops + 0.5% surfactant, time 10 min
[23] = insulin eye drops + 0.5% surfactant, time 20 min
[24] = insulin eye drops + 0.5% surfactant, time 30 min
[25] = insulin eye drops + 0.5% surfactant, time 40 min
[26] = insulin eye drops + 0.5% surfactant, time 50 min
[27] = insulin eye drops + 0.5% surfactant, time 60 min
[28] = insulin eye drops + 0.5% surfactant, time 70 min
[29] = insulin eye drops + 0.5% surfactant, time 80 min
[30] = insulin eye drops + 0.5% surfactant, time 90 min
[31] = insulin eye drops + 0.5% surfactant, time 100 min
[32] = insulin eye drops + 0.5% surfactant, time 110 min
[33] = insulin eye drops + 0.5% surfactant, time 120 min
[34] = insulin eye drops + 0.5% alkylglucoside

Compound: CCCCCCCCCCO[C@@H]1O[C@H](CO)[C@@H](O[C@H]2O[C@H](CO)[C@@H](O)[C@H](O)[C@H]2O)[C@H](O)[C@H]1O [decyl maltoside, decyl-β-D-maltoside]
- Ratio Cmax(alkylsacch)/Cmax(No alkylsacch) [1, 4]: ≦1.5
- Tmax [1, 4]: ~60 to 120 min
- Ratio Cmax(alkylsacch)/Cmax(No alkylsacch) [1, 5]: ≦1.5
- Tmax [1, 5]: ~60 to 120 min
- Ratio Cmax(alkylsacch)/Cmax(No alkylsacch) [1, 6]: ≧1.5
- Tmax [1, 6]: ~60 to 120 min
- Ratio Cmax(alkylsacch)/Cmax(No alkylsacch) [1, 7]: ≧1.5
- Tmax [1, 7]: ~5 to 15 min
- Ratio Cmax(alkylsacch)/Cmax(No alkylsacch) [1, 8]: ≧1.5
- Tmax [1, 8]: ~5 to 15 min
- Tmax [1, 9]: ~60 to 120 min
- Tmax [1, 10]: ~60 to 120 min
- Tmax [1, 11]: ~60 to 120 min
- Tmax [1, 12]: ~5 to 15 min
- Tmax [1, 13]: ~5 to 15 min
- Ratio Cmax(alkylsacch)/Cmax(No alkylsacch) [1, 14]: ≦1.5
- Tmax [1, 14]: ~60 to 120 min
- Ratio Cmax(alkylsacch)/Cmax(No alkylsacch) [1, 15]: ≦1.5
- Tmax [1, 15]: ~60 to 120 min
- Ratio Cmax(alkylsacch)/Cmax(No alkylsacch) [1, 16]: ≧1.5
- Tmax [1, 16]: ~60 to 120 min
- Ratio Cmax(alkylsacch)/Cmax(No alkylsacch) [1, 17]: ≧1.5
- Tmax [1, 17]: ~5 to 15 min
- Ratio Cmax(alkylsacch)/Cmax(No alkylsacch) [1, 18]: ≧1.5
- Tmax [1, 18]: ~5 to 15 min
- Blood Glucose Concentration (blood D-glucose [2]; [19]): 287 mg/dL
- Blood Glucose Concentration (blood D-glucose [2]; [20]): 249 mg/dL
- hypoglycemic effect / insulin absorption enhancement (blood D-glucose [2]): prompt and sustained fall in blood glucose levels
- Blood Glucose Concentration (blood D-glucose [2]; [21]): 337 mg/dL
- Blood Glucose Concentration (blood D-glucose [2]; [22]): 304 mg/dL
- Blood Glucose Concentration (blood D-glucose [2]; [23]): 292 mg/dL
- Blood Glucose Concentration (blood D-glucose [2]; [24]): 221 mg/dL
- Blood Glucose Concentration (blood D-glucose [2]; [25]): 164 mg/dL
- Blood Glucose Concentration (blood D-glucose [2]; [26]): 138 mg/dL
- Blood Glucose Concentration (blood D-glucose [2]; [27]): 114 mg/dL
- Blood Glucose Concentration (blood D-glucose [2]; [28]): 104 mg/dL
- Blood Glucose Concentration (blood D-glucose [2]; [29]): 110 mg/dL
- Blood Glucose Concentration (blood D-glucose [2]; [30]): 120 mg/dL
- Blood Glucose Concentration (blood D-glucose [2]; [31]): 92 mg/dL
- Blood Glucose Concentration (blood D-glucose [2]; [32]): 81 mg/dL
- Blood Glucose Concentration (blood D-glucose [2]; [33]): 87 mg/dL
- absorption enhancing activity by alkyl chain length (blood D-glucose [2]): less absorption enhancing activity
- glucagon absorption / blood D-glucose values (blood D-glucose [3]; eye drops surfactant plus glucagon in rats previously treated with surfactant plus insulin eye drops): increase significantly
- Blood Glucose Concentration (blood D-glucose [3]; time 130 min): 95 mg/dL
- Blood Glucose Concentration (blood D-glucose [3]; time 140 min): 99 mg/dL
- Blood Glucose Concentration (blood D-glucose [3]; time 150 min): 132 mg/dL
- Blood Glucose Concentration (blood D-glucose [3]; time 160 min): 157 mg/dL
- Blood Glucose Concentration (blood D-glucose [3]; time 170 min): 171 mg/dL
- Blood Glucose Concentration (blood D-glucose [3]; time 180 min): 180 mg/dL
- Blood Glucose Concentration (blood D-glucose [3]; time 190 min): 189 mg/dL

Compound: CCCCCCCOC1O[C@H](CO)[C@@H](O)[C@H](O)[C@H]1O (some centres unmarked) [heptylglucoside, heptylglucopyranoside]
- hypoglycemic effect / insulin absorption enhancement (blood D-glucose [2]): ineffective

Compound: CCCCCCOC1O[C@H](CO)[C@@H](O)[C@H](O)[C@H]1O (some centres unmarked) [hexylglucoside, Hexylglucopyranoside]
- hypoglycemic effect / insulin absorption enhancement (blood D-glucose [2]): ineffective

Compound: CCCCCCCCCOC1O[C@H](CO)[C@@H](O)[C@H](O)[C@H]1O (some centres unmarked) [nonylglucoside, nonylglucopyranoside]
- hypoglycemic effect / insulin absorption enhancement (blood D-glucose [2]): effectively stimulated insulin absorption
- blood glucose level, initial (from) (blood D-glucose [2]; [34]): 297 mg/dL
- blood glucose level, reduced (to) (blood D-glucose [2]; [34]): 150 mg/dL

Compound: CCCCCCCCO[C@@H]1O[C@H](CO)[C@@H](O[C@H]2O[C@H](CO)[C@@H](O)[C@H](O)[C@H]2O)[C@H](O)[C@H]1O [octyl maltoside, Octyl-β-D-maltoside]
- Ratio Cmax(alkylsacch)/Cmax(No alkylsacch) [1, 4]: ≦1.5
- Tmax [1, 4]: ~60 to 120 min
- Ratio Cmax(alkylsacch)/Cmax(No alkylsacch) [1, 5]: ≦1.5
- Tmax [1, 5]: ~60 to 120 min
- Ratio Cmax(alkylsacch)/Cmax(No alkylsacch) [1, 6]: ≦1.5
- Tmax [1, 6]: ~60 to 120 min
- Ratio Cmax(alkylsacch)/Cmax(No alkylsacch) [1, 7]: ≦1.5
- Tmax [1, 7]: ~60 to 120 min
- Ratio Cmax(alkylsacch)/Cmax(No alkylsacch) [1, 8]: ≦1.5
- Tmax [1, 8]: ~60 to 120 min
- Tmax [1, 9]: ~60 to 120 min
- Tmax [1, 10]: ~60 to 120 min
- Tmax [1, 11]: ~60 to 120 min
- Tmax [1, 12]: ~60 to 120 min
- Tmax [1, 13]: ~60 to 120 min
- Ratio Cmax(alkylsacch)/Cmax(No alkylsacch) [1, 14]: ≦1.5
- Tmax [1, 14]: ~60 to 120 min
- Ratio Cmax(alkylsacch)/Cmax(No alkylsacch) [1, 15]: ≦1.5
- Tmax [1, 15]: ~60 to 120 min
- Ratio Cmax(alkylsacch)/Cmax(No alkylsacch) [1, 16]: ≦1.5
- Tmax [1, 16]: ~60 to 120 min
- Ratio Cmax(alkylsacch)/Cmax(No alkylsacch) [1, 17]: ≦1.5
- Tmax [1, 17]: ~60 to 120 min
- Ratio Cmax(alkylsacch)/Cmax(No alkylsacch) [1, 18]: ≦1.5
- Tmax [1, 18]: ~60 to 120 min
- absorption enhancing activity by alkyl chain length (blood D-glucose [2]): no

Compound: decylsucrose
- hypoglycemic effect / insulin absorption enhancement (blood D-glucose [2]): effective in reducing blood glucose levels
- blood glucose level (blood D-glucose [2]; insulin eye drops + 0.5% alkyl saccharide, time 0 min): 313 mg/dL
- blood glucose level (blood D-glucose [2]; insulin eye drops + 0.5% alkyl saccharide, time 120 min): 164 mg/dL

Compound: dodecylsucrose [dodecyl sucrose]
- Tmax [1, 4]: ~60 min
- Tmax [1, 5]: ~5 to 15 min
- Tmax [1, 6]: ~5 to 15 min
- Tmax [1, 7]: ~5 to 15 min
- Tmax [1, 8]: ~5 to 15 min
- Tmax [1, 9]: ~60 min
- Tmax [1, 10]: ~5 to 15 min
- Tmax [1, 11]: ~5 to 15 min
- Tmax [1, 12]: ~5 to 15 min
- Tmax [1, 13]: ~5 to 15 min
- Tmax [1, 14]: ~60 min
- Tmax [1, 15]: ~5 to 15 min
- Tmax [1, 16]: ~5 to 15 min
- Tmax [1, 17]: ~5 to 15 min
- Tmax [1, 18]: ~5 to 15 min
- Blood Glucose Concentration (blood D-glucose [2]; [19]): 305 mg/dL
- Blood Glucose Concentration (blood D-glucose [2]; [20]): 266 mg/dL
- Blood Glucose Concentration (blood D-glucose [2]; [21]): 351 mg/dL
- Blood Glucose Concentration (blood D-glucose [2]; [22]): 347 mg/dL
- Blood Glucose Concentration (blood D-glucose [2]; [23]): 252 mg/dL
- Blood Glucose Concentration (blood D-glucose [2]; [24]): 161 mg/dL
- Blood Glucose Concentration (blood D-glucose [2]; [25]): 120 mg/dL
- Blood Glucose Concentration (blood D-glucose [2]; [26]): 105 mg/dL
- Blood Glucose Concentration (blood D-glucose [2]; [27]): 114 mg/dL
- Blood Glucose Concentration (blood D-glucose [2]; [28]): 113 mg/dL
- Blood Glucose Concentration (blood D-glucose [2]; [29]): 104 mg/dL
- Blood Glucose Concentration (blood D-glucose [2]; [30]): 86 mg/dL
- Blood Glucose Concentration (blood D-glucose [2]; [31]): 113 mg/dL
- Blood Glucose Concentration (blood D-glucose [2]; [32]): 107 mg/dL
- Blood Glucose Concentration (blood D-glucose [2]; [33]): 112 mg/dL
- blood glucose level (blood D-glucose [2]; insulin eye drops + […] alkyl saccharide, time 0 min): 335 mg/dL
- blood glucose level (blood D-glucose [2]; insulin eye drops + […] alkyl saccharide, time 120 min): 150 mg/dL
